The values that follow come from patent publication US20140369987A1, “DERMASEPTIN B2 USED AS AN INHIBITOR OF THE GROWTH OF A TUMOR” (Centre National de la Recherche Scientifique (C.N. R.S), priority 2009, published 2014).

Ends that are not written are not given here.

The subject of data set [1] is tumours induced by injection of PC-3. Nature of the data set: Growth of PC-3 xenograft tumours in nude mice. Type of data set: in vivo. The protocol:
Batches of 10 nude mice (nude/nude, Laboratoire IFFA CREDO) were injected with 2×10^6 PC-3 cells. One week after injection of the cells, the animals having a palpable tumour were randomly distributed per cage to be treated by injection into the tumour with 100 μl per day of PBS solution (control batch) or with a solution of dermaseptin B2 diluted in PBS. Dermaseptin B2 was injected at a concentration of 5 mg/kg the first week of treatment, then this dose was reduced to 0.5 mg/kg for 12 days. […] As control, a batch of mice was also treated with Taxol® (paclitaxel, Bristol-Myers Squibb) twice per week via intra-peritoneal injection at 10 mg/kg. The size of the tumours was measured using a calliper twice a week up until sacrifice of the animals 29 days after the beginning of treatment. After sacrifice, the tumours were removed and weighed.

In the next data set the test system is receptor of adenosin A1. The conditions noted are these: cited from earlier work.
Another data set has as its system ABAE cells. Kind of data set: Formation of pseudo capillaries by ABAE cells on collagen 1 gel (Montessano test). Format: cell-based, bovine. The settings on record: 5 μM. Here is the method: The effect of dermaseptin B2 on the formation of pseudo capillaries was assessed through use of the Montessano test. This test allows evaluation of the differentiation of ABAE cells to pseudo capillaries when seeded in a monolayer on collagen 1 gel. For this assay, ABAE cells were seeded in 24-well plates on a monolayer of collagen 1 to the proportion of 10^5 cells/well in DMEM medium supplemented with 10% foetal calf serum. 24 hours after seeding, 20 ng/ml of FGF-2 were added to the cells in the absence or presence of varying concentrations of dermaseptin B2. This treatment was renewed for two days and the formation of a network of pseudo capillaries was assessed 24 hours later by observation under phase contrast microscope measuring the number of capillaries formed per field of observation (FIGS. 5C and D).

The subject of a further data set is LB-EBV cells. Kind of data set: Growth of non-adherent B-lymphoma line LB-EBV, crystal violet cell count. Type of data set: cell-based, human. The settings on record: 10 μM; count on 7th day. The protocol: (§1) Dermaseptin B2 was also tested on the growth of two non-adherent lines derived from human B-lymphoma: the Raji and LB-EBV lines. The cells were seeded at 10^4 cells per well in 0.5 ml of RPMI medium supplemented with 2.5% of decomplemented foetal calf serum. 24 hours after seeding, the cells were treated with different concentrations of dermaseptin B2. […] On the 7th day, the cell count was estimated by staining with crystal violet as described previously.

The test system of data set [2] is PC-3 cells. Nature of the data set: Colony formation of PC-3 cells in soft agar. Format: cell-based, human. The settings on record: 5 μM; 12 days. The protocol: To confirm the inhibition of the cell growth observed on plastic with the PC-3 cells, the inventors tested the effect of dermaseptin B2 on the ability of the PC-3 cells to multiply independently of anchoring by forming colonies in agar. For this assay, the cells were seeded at a density of 2.5×10^3 cells par cm^2 diluted in complete culture medium (RPMI supplemented with 5% foetal calf serum) containing 0.35% agar and varying concentrations of dermaseptin B2, in 12-well dishes containing 1 ml of solidified 0.6% agar. The same variable concentrations of dermaseptin B2 were also added to the complete culture medium deposited on top of the cultures on the day of seeding, and twice per week. After incubation for 12 days at 37° C. in an incubator saturated with water vapour and containing 7% CO2, the colonies having a diameter larger than […] were counted. Each measurement was performed in triplicate and each experiment was repeated three times.

The test system of data set [3] is PC-3 cells. Kind of data set: Annexin V FITC / propidium iodide double labelling, flow cytometry. Format: cell-based, human. The settings on record: 2.5 μM. From the text: During the proliferation assays of PC-3 or ABAE cells, in the presence of dermaseptin B2, the rapidly observed inhibitor effect and the non-refringence of the treated cells leads to assuming that dermaseptin B2 could have a cytotoxic role or cell death inducing role rather than blocking the growth of sensitive cells. To determine whether dermaseptin B2 could induce apoptosis of sensitive cells, the inventors conducted double labelling experiments with Annexin V and propidium iodide on PC-3 cells in culture on plastic and treated or not treated with dermaseptin B2. These experiments were followed by flow cytometry analysis of the labelled cells.
For this purpose, the cells were seeded in 6-well plates in the absence or presence of 2.5 μM of dermaseptin B2 for 24 or 72 hours. The cells were then detached, washed with cold PBS and re-suspended in 100 μl of fixing buffer (MACs, Miltenyi Biotec) containing Annexin V FITC for 10 min in the dark. After washings in PBS, the cells were again labelled by incubation in a fixing buffer containing a final concentration of 1 μg/ml of propidium iodide (PI) for 5 min in the dark. After further washings the cells were analyzed by passing through a flow cytometer (FACScan, Becton Dickinson Labware) (FIGS. 10 and 11).
A general note: A flow cytometer gives signals particle by particle.

Data set [4] concerns Gram+ and Gram− bacteria, yeasts, protozoa and filamentous fungi. The settings on record: micromolar doses; cited from earlier work.
For data set [5], the system named is G1947 human prostatic hyperplasia cells. Here is the method: (§2) The anti-proliferative activity of dermaseptin B2 was assessed in vitro on different types of cells: PC-3 adenocarcinoma cells and G1947 human prostatic hyperplasia cells, and on mouse embryo cells (CES). The different types of cells were seeded in 24-well plates at […] in 0.5 ml of culture medium (RPMI supplemented with 5% foetal calf serum for the PC-3 and G1947 cells, or DMEM supplemented with 10% foetal calf serum for the CES cells). After 24 hours, the cells were treated with different doses of dermaseptin B2. The treatment was then renewed at days 3 and 5 after seeding of the cells. On the 6th day, an estimated cell count was performed by staining with crystal violet. The cells were rinsed with PBS, fixed on plastic by dehydration with absolute ethanol, and then stained with a 0.2% solution of crystal violet in 2% ethanol for 15 min. After washing, the cells were solubilised with 1% SDS solution. The optical density (OD) of the crystal violet was measured using a spectrophotometer at 595 nm. A standard range was produced for conversion of OD-number of cells.

In the next data set the test system is mouse embryo cells (CES). The protocol: as §2
Another data set deals with Raji cells. Nature of the data set: Growth of non-adherent B-lymphoma line Raji, crystal violet cell count. Format: cell-based, human. The settings on record: 10 μM; count on 7th day. The protocol:
as §1

The subject of data set [6] is adult bovine aortic endothelial cells (ABAE). Kind of data set: Proliferation of ABAE endothelial cells on plastic. The settings on record: with 5 ng/ml FGF-2; count on 7th day. Type of data set: cell-based. Here is the method:
The angiostatic activity of dermaseptin B2 was assessed for its capacity to inhibit firstly the proliferation of adult bovine aortic endothelial cells (ABAE) on plastic and secondly the formation of pseudo capillaries by these same cells in collagen gel. For the proliferation test the ABAE cells were seeded in 24-well plates at a density of 10^4 cells/well in DMEM medium supplemented with 10% foetal calf serum and 5 ng/ml of FGF-2. […] On the 7th day the cell count was estimated by staining with crystal violet.

Turning to `CC(=O)O[C@H]1C(=O)[C@@]2(C)[C@H]([C@H](OC(=O)c3ccccc3)[C@]3(O)C[C@H](OC(=O)[C@H](O)[C@@H](NC(=O)c4ccccc4)c4ccccc4)C(C)=C1C3(C)C)[C@]1(OC(C)=O)CO[C@@H]1C[C@@H]2O` [Taxol®, paclitaxel, reference compound], in [1] (intra-peritoneal 10 mg/kg twice per week, 29 days of treatment), the “inhibition of tumour growth (tumour volume) compared with non-treated tumours” value came out at 36%.

In the case of “GLWSKIKEVGKEAAKAAAKAAGKAALGAVSEAV [dermaseptin B2]”, the “effect on binding of agonists with the receptor of adenosin A1” value in the data set with receptor of adenosin A1 is recorded as “increase the binding of agonists”. The “formation of pseudo capillaries induced by FGF-2” value in the data set with ABAE cells (20 ng/ml FGF-2) is “strongly inhibits”. For the same molecule, the “cytotoxic effect on the monolayer of ABAE cells” value in the data set with ABAE cells (pseudo capillary assay) is “did not have any cytotoxic effect”. The “mice with full disappearance of the tumour” value in data set [1] (batches of 10 mice, after sacrifice at day 29) stood at 3 mice. For the same molecule, the “inhibition of growth of LB-EBV cells” value in the data set on LB-EBV cells is on record as “about 95”. Besides, in the data set with PC-3 cells [2], the “growth of PC-3 cells on soft agar (colonies)” value was “fully inhibits growth”. Also, in the data set with PC-3 cells [3], the “increase of percentage of cells labelled solely with PI (necrosis)” value was found to be 3 times. In the data set on PC-3 cells [3] (24 h), the “increase in cells labelled twofold with Annexin V and PI (apoptosis)” value is recorded as “about 30%”; the “increase of percentage of cells only labelled with Annexin V (early apoptosis)” value was 5 times; the “percentage of non-labelled cells” value is reported as “dropped suddenly in the same proportions”. Moreover, the “percentage of cells labelled twofold with Annexin V and PI, 72 h versus 24 h” value in the data set with PC-3 cells [3] (72 h) is reported as “does not change”. In addition, the “killing of Gram+ and Gram− bacteria, yeasts, protozoa and filamentous fungi” value in [4] is listed as “rapidly kills”. The “cell detachment during treatment, G1947 cells” value in data set [5] is on record as “no cell detachment was observed”. Moreover, the “cell detachment during treatment, embryo (CES) cells” value in the data set on mouse embryo cells (CES) was “no cell detachment was observed”. Further, the “inhibition of growth of Raji cells” value with Raji cells is “about 95”. In addition, the “inhibition of growth of ABAE cells” value in data set [6] is “dose-dependent and full inhibition”.
